{
  "source": "patent US20210230203A1",
  "about": "“Amphiphilic Kanamycin Compositions and Methods” (priority 2020, published 2021)",
  "key": {"Fusarium": {"tested_on": "Fusarium", "assay": "MIC against various species, CLSI M27 & M38 (Table 4)", "type": "cell-based", "details": "24-72 hours"}, "Candida albicans MYA2876": {"tested_on": "Candida albicans MYA2876", "assay": "MIC against fungal strains (Table 1)", "type": "cell-based", "details": "Candida albicans, MYA2876, read-out: Minimum inhibitory concentration"}, "L. prolificans": {"tested_on": "L. prolificans", "assay": "MIC against various species, CLSI M27 & M38 (Table 4)", "details": "Lomentospora prolificans, read-out: Minimum inhibitory concentration 100%"}, "Histoplasma capsulatum": {"tested_on": "Histoplasma capsulatum", "assay": "microbe, parasite or virus in culture", "type": "cell-based", "details": "Histoplasma capsulatum, Table 3, RPMI 0.165M MOPS, 24-72 hours"}, "Scedosporium": {"tested_on": "Scedosporium", "assay": "MIC against various species, CLSI M27 & M38 (Table 4)", "details": "Scedosporium"}, "A. furnigatus": {"tested_on": "A. furnigatus", "assay": "MIC against various species, CLSI M27 & M38 (Table 4)", "details": "Aspergillus fumigatus"}, "P. variotil": {"tested_on": "P. variotil", "assay": "MIC against various species, CLSI M27 & M38 (Table 4)", "type": "cell-based, Paecilomyces variotii", "details": "Paecilomyces variotii, P. variotil QC, RPMI 0.165M MOPS, 24-72 hours, read-out: Minimum inhibitory concentration 100%"}, "Coccidioldes sp.": {"tested_on": "Coccidioldes sp.", "assay": "microbe, parasite or virus in culture", "type": "cell-based, Coccidioides species", "details": "Coccidioides, Table 3, RPMI 0.165M MOPS, 24-72 hours"}, "[1]": {"tested_on": "Cryptococcus neoformans H99", "assay": "MIC against fungal strains (Table 1)", "type": "cell-based", "details": "Cryptococcus neoformans, H99, read-out: Minimum inhibitory concentration"}, "Rhodotorula pilimanae": {"tested_on": "Rhodotorula pilimanae", "assay": "MIC against fungal strains (Table 1)", "type": "cell-based", "details": "Rhodotorula mucilaginosa, read-out: Minimum inhibitory concentration"}, "Candida albicans 64124": {"tested_on": "Candida albicans 64124", "assay": "MIC against fungal strains (Table 1)", "type": "cell-based", "details": "read-out: Minimum inhibitory concentration"}, "P. variatii": {"tested_on": "P. variatii", "assay": "MIC against filamentous and dimorphic fungi, CLSI M27 & M38 (Table 3)", "type": "cell-based, Paecilomyces variotii", "details": "Paecilomyces variotii, P. variatii MYA-3630, RPMI 0.165M MOPS, 24-72 hours, read-out: Minimum inhibitory concentration 100%"}, "B. dermatitidis": {"tested_on": "B. dermatitidis", "assay": "MIC against various B. dermatitidis isolates, CLSI M27 & M38", "details": "Blastomyces dermatitidis, RPMI 0.165M MOPS, 24-72 hours"}, "[2]": {"tested_on": "Fusarium graminearum B4-5A", "assay": "microbe, parasite or virus in culture", "type": "cell-based", "details": "Fusarium graminearum, B45A, read-out: Minimum inhibitory concentration"}},
  "note": "Read-outs that look alike come from different tables or passages of the source.",
  "data": [
    {"smiles": "C[C@@H](c1ncncc1F)[C@](O)(Cn1cncn1)c1ccc(F)cc1F", "note": "[Voriconazole, reference compound]", "values": [
      {"measurement": "MIC", "setting": "Fusarium; Fusarium FO1, RPMI 0.165M MOPS, read-out: Minimum inhibitory concentration 100%", "value": "> 16", "unit": "µg/mL"},
      {"measurement": "Minimum inhibitory concentration 100%", "setting": "Fusarium; Fusarium FO2, RPMI 0.165M MOPS", "value": ">16", "unit": "µg/mL"},
      {"measurement": "Minimum inhibitory concentration 100%", "setting": "Fusarium; Fusarium FS1, RPMI 0.165M MOPS", "value": ">16", "unit": "µg/mL"},
      {"measurement": "MIC", "setting": "Candida albicans MYA2876", "value": 0.125, "unit": "µg/mL"},
      {"measurement": "MIC", "setting": "L. prolificans", "value": "> 16", "unit": "µg/mL"},
      {"measurement": "MIC", "setting": "Histoplasma capsulatum; read-out: Minimum inhibitory concentration 100%, Histoplasma capsulatum HC1", "value": 0.125, "unit": "µg/mL"},
      {"measurement": "MIC", "setting": "Histoplasma capsulatum; read-out: Minimum inhibitory concentration 100%, Histoplasma capsulatum HC2", "value": "≤ 0.03", "unit": "µg/mL"},
      {"measurement": "MIC", "setting": "Histoplasma capsulatum; read-out: Minimum inhibitory concentration 100%, Histoplasma capsulatum HC3", "value": "≤ 0.03", "unit": "µg/mL"},
      {"measurement": "MIC", "setting": "Scedosporium; read-out: Minimum inhibitory concentration 100%, Scedosporium SA1, RPMI 0.165M MOPS, 24-72 hours", "value": 1, "unit": "µg/mL"},
      {"measurement": "MIC", "setting": "Scedosporium; read-out: Minimum inhibitory concentration 100%, Scedosporium SB1, RPMI 0.165M MOPS, 24-72 hours", "value": 2, "unit": "µg/mL"},
      {"measurement": "MIC", "setting": "A. furnigatus; read-out: Minimum inhibitory concentration 100%, A. furnigatus AF1, RPMI 0.165M MOPS, 24-72 hours", "value": 1, "unit": "µg/mL"},
      {"measurement": "MIC", "setting": "A. furnigatus; read-out: Minimum inhibitory concentration 100%, A. furnigatus AF2, RPMI 0.165M MOPS, 24-72 hours", "value": 8, "unit": "µg/mL"},
      {"measurement": "MIC", "setting": "A. furnigatus; read-out: Minimum inhibitory concentration 100%, A. furnigatus AF3, RPMI 0.165M MOPS, 24-72 hours", "value": 4, "unit": "µg/mL"},
      {"measurement": "MIC", "setting": "P. variotil", "value": 0.125, "unit": "µg/mL"},
      {"measurement": "MIC", "setting": "Coccidioldes sp.; read-out: Minimum inhibitory concentration 100%, Coccidioldes sp. Cocci1", "value": 0.25, "unit": "µg/mL"},
      {"measurement": "MIC", "setting": "Coccidioldes sp.; read-out: Minimum inhibitory concentration 100%, Coccidioldes sp. Cocci2", "value": 2, "unit": "µg/mL"},
      {"measurement": "MIC", "setting": "Coccidioldes sp.; read-out: Minimum inhibitory concentration 100%, Coccidioldes sp. DI17-143", "value": 0.125, "unit": "µg/mL"},
      {"measurement": "MIC", "setting": "[1]", "value": 0.125, "unit": "µg/mL"},
      {"measurement": "MIC", "setting": "Rhodotorula pilimanae", "value": 8, "unit": "µg/mL"},
      {"measurement": "MIC", "setting": "Candida albicans 64124", "value": "> 256", "unit": "µg/mL"},
      {"measurement": "MIC", "setting": "P. variatii", "value": 0.125, "unit": "µg/mL"},
      {"measurement": "MIC", "setting": "B. dermatitidis; read-out: Minimum inhibitory concentration 100%, B. dermatitidis BD1", "value": 0.06, "unit": "µg/mL"},
      {"measurement": "MIC", "setting": "B. dermatitidis; read-out: Minimum inhibitory concentration 100%, B. dermatitidis BD2", "value": "≤ 0.03", "unit": "µg/mL"},
      {"measurement": "MIC", "setting": "B. dermatitidis; read-out: Minimum inhibitory concentration 100%, B. dermatitidis BD3", "value": 0.125, "unit": "µg/mL"},
      {"measurement": "MIC", "setting": "[2]", "value": 32, "unit": "µg/mL"}
    ]}
  ]
}
